The source of these data is patent US20180249713A1, “Composition for Protection of Plants, Fruit and Vegetables” (priority 2015, published 2018).

Like-named read-outs stand apart in the source and are kept apart here.

The subject of experiment [1] is Puccinia striiformis f. sp. tritici (Pst). The experiment is described as follows: Indoor greenhouse study, stripe (yellow) rust, preventive and curative. Format: in vivo. The conditions noted are these: preventive spray one day prior to infection, curative three days later; 30, 100, 300, 1000 ppm; evaluated 16 days later. The source says:
In this study we used tebuconazole as fungicidal reference (control) and the above outlined biocide A and B compositions for testing the effect on Stripe (yellow) rust, caused by Puccinia striiformis f. sp. tritici (Pst). The applied method also tests preventive and curative effects of the elected fungicide compositions.
The scale used is 0=no attack;
1=necrose with a few pustules; 5=half of the infected leafs are attacked by pustules; 10=100% attack of the leafs.
The leafs were sprayed preventive one day prior to infection with Stripe (yellow) rust. Three days later the plants were sprayed for curative purposes.
16 days later the plant were evaluated.
The following doses were used for both preventive and curative experiments: 30, 100, 300, 1000 ppm

Experiment [2] has as its system Fusarium. Description: Effect on Fusarium (Spore Growth) in vitro study. The format is cell-based, Fusarium culmorum. The protocol: (§1) Sensitivity towards Tebuconazole (control) and Biocides A and B (see tables 1A and 1B) respectively, was tested in petri dishes using spore suspension containing 2.5×10^4 spores/ml of each fungal isolate or a mycelium block. 5-6 different concentrations of Biocide A and B respectively, as outlined in table 3 below were used in the tests.
(§2) For the tests, the two biocides A and B where individually mixed with potato dextrose broth to achieve the appropriate test concentration. Percent inhibition was assessed after a few days depending on the fungi and its growth rates measured in relation to control.

Experiment [3] concerns Septoria tritici.
Experiment [4] deals with Fusarium. Description: Effect on Fusarium (Mycelie Growth) in vitro study. The format is cell-based, Fusarium culmorum. The method, then:
as §1, §2

With `CC(C)(C)C(O)(CCc1ccc(Cl)cc1)Cn1cncn1` (stereo not shown) [Tebuconazole], the “effect on Stripe (yellow) rust attack” value in experiment [1] is “able to eliminate the fungi attack both in a preventive and a curative manner”. The Growth was 25% in experiment [2] (0.1 ppm); 0% in experiment [2] (1 ppm); 0% in experiment [2] (3.3 ppm); 0% in experiment [2] (10 ppm); 0% in experiment [2] (33 ppm); 0% in experiment [2] (100 ppm). Further, the Growth worked out at 10% in experiment [3] (0.1 ppm); 5% in experiment [3] (1 ppm); 0% in experiment [3] (3.3 ppm); 0% in experiment [3] (10 ppm); 0% in experiment [3] (33 ppm); 0% in experiment [3] (100 ppm). The Growth in experiment [4] (0.1 ppm) turned out to be 10%; in experiment [4] (1 ppm), 10%; in experiment [4] (3.3 ppm) it was 0%; in experiment [4] (10 ppm), 0%; in experiment [4] (33 ppm), 0%; in experiment [4] (100 ppm), 0%.
